# Laboratory results published in patent US20230114728A1 (Venatorx Pharmaceuticals, Inc., priority 2019, published 2023).
# Like-named read-outs stand apart in the source and are kept apart here.
# Columns and labels:
# [1] = tested on: K. pneumoniae SI-117 producing VIM-1; assay: Broth microdilution MIC in CAMHB; type: cell-based; details: Klebsiella pneumoniae, read-out: Minimum Inhibitory Concentration, K. pneumoniae SI-117
# Experimental: (§1) Example III: In Vitro Antibacterial Assays
# (§2) To determine the ability of test compounds to inhibit the growth of bacterial strains, classic cell based broth microdilution minimum inhibitory concentration (MIC) assays were employed. MIC assays are performed according to CLSI methods except where otherwise noted (CLSI, 2018 and CLSI, 2019). The reference type strain E. coli ATCC 25922; the wild-type parent strain E. coli AG100; the hyper-permeable E. coli 901C and E. coli D22; and the E. coli AG100A strain lacking the acrAB efflux pump encoding genes were used to determine the ability of the PBP inhibitors to penetrate the outer membrane of gram-negative bacteria and inhibit bacterial growth. […] The P. aeruginosa ATCC 27853 and A. baumannii ATCC 19606, along with the hyper-permeable P. aeruginosa ATCC 35151 and an engineered efflux pump-compromised strain of P. aeruginosa (ΔmexAB-oprM) were used to determine the ability of PBP inhibitors to penetrate the outer membrane of P. aeruginosa and A. baumannii and assess antibacterial activity against these important gram-negative organisms.
# (§3) Briefly, cryo-preserved bacterial cultures of challenge strains are streaked for isolation on appropriate agar medium, in this case cation-adjusted Mueller Hinton agar. Following incubation to allow growth of the colonies, plates are sealed with parafilm and stored refrigerated for up to two weeks. For preparation of assay inoculum and to ensure low variability, at least 5 colonies are picked from the agar plates with an inoculating loop and aseptically transferred to a culture tube containing 3 mL of cation-adjusted Mueller Hinton broth (CAMHB). The broth culture is grown for 3-5 hours at 37° C. with shaking at 200 rpm. Meanwhile, 2-fold serial dilutions of test compounds are conducted in a 96-well plate with a final volume of 75 μL per well at 2-fold the final desired concentration. After the dilution plates are set up the growing cultures are then diluted in a cuvette containing CAMHB and the optical density is measured at 600 nm. The inoculum is diluted such that 75 μL of this culture in CAMHB results in a starting bacterial concentration of 2-8×10^5 CFU/mL when added to the dilution plates. The plates are incubated for 16-20 hours for Enterobacteriaceae and Pseudomonas and 20-24 hours for Acinetobacter at 37° C. The MIC values are read visually as the lowest concentration well with no bacterial growth.
# E. coli 901C = assay: Broth microdilution MIC in CAMHB; type: cell-based; details: Escherichia coli, MHB, read-out: Minimum Inhibitory Concentration, E. coli 901C
# Experimental: as §1, §2, §3
# E. coli AG100A = assay: Broth microdilution MIC in CAMHB; type: cell-based; details: Escherichia coli, read-out: Minimum Inhibitory Concentration, E. coli AG100A
# Experimental: as §1, §2, §3
# P. aeruginosa ATCC 27853 = assay: Broth microdilution MIC in CAMHB; type: cell-based; details: Pseudomonas aeruginosa, ATCC27853; MHB; read-out: Minimum Inhibitory Concentration, P. aeruginosa ATCC 27853
# Experimental: as §1, §2, §3
# E. coli ATCC 25922 = assay: Broth microdilution MIC in CAMHB; type: cell-based
# Experimental: as §1, §2, §3
# P. aeruginosa ATCC 35151 = assay: Broth microdilution MIC in CAMHB; type: cell-based; details: Pseudomonas aeruginosa, ATCC35151; MHB; hyper-permeable strain; read-out: Minimum Inhibitory Concentration, P. aeruginosa ATCC 35151
# Experimental: as §1, §2, §3
# [2] = tested on: P. aeruginosa (ΔmexAB-oprM); assay: Broth microdilution MIC in CAMHB; type: cell-based; details: Pseudomonas aeruginosa, read-out: Minimum Inhibitory Concentration, P. aeruginosa ΔmexAB-OprM
# Experimental: as §1, §2, §3
# [3] = tested on: K. pneumoniae 848844 producing SHV-11 and KPC-2; assay: Broth microdilution MIC in CAMHB; type: cell-based; details: Klebsiella pneumoniae, read-out: Minimum Inhibitory Concentration, K. pneumoniae 848844
# Experimental: as §1, §2, §3
# E. coli AG100 = assay: Broth microdilution MIC in CAMHB; type: cell-based; details: Escherichia coli, MHB, read-out: Minimum Inhibitory Concentration, E. coli AG100
# Experimental: as §1, §2, §3
# [4] = tested on: K. pneumoniae UMM producing SHV-5 and KPC-2; assay: Broth microdilution MIC in CAMHB; type: cell-based; details: Klebsiella pneumoniae, read-out: Minimum Inhibitory Concentration, K. pneumoniae UMM
# Experimental: as §1, §2, §3
# E. coli D22 = assay: Broth microdilution MIC in CAMHB; type: cell-based; details: Escherichia coli, MHB, read-out: Minimum Inhibitory Concentration, E. coli D22
# Experimental: as §1, §2, §3
# A. baumannii ATCC 19606 = assay: Broth microdilution MIC in CAMHB; type: cell-based; details: Acinetobacter baumannii, ATCC19606; MHB; read-out: Minimum Inhibitory Concentration, A. baumannii ATCC 19606
# Experimental: as §1, §2, §3
# P. aeruginosa PBP3 = biological target: T1, P. aeruginosa PBP3 (Pseudomonas aeruginosa, UniProt G3XD46); assay: Bocillin-FL fluorescence polarization competition binding assay, P. aeruginosa PBP3; details: fluorescence polarization competition binding assay using Bocillin-FL
# T1 construct: made in house
# T1 sequence (G3XD46 whole entry): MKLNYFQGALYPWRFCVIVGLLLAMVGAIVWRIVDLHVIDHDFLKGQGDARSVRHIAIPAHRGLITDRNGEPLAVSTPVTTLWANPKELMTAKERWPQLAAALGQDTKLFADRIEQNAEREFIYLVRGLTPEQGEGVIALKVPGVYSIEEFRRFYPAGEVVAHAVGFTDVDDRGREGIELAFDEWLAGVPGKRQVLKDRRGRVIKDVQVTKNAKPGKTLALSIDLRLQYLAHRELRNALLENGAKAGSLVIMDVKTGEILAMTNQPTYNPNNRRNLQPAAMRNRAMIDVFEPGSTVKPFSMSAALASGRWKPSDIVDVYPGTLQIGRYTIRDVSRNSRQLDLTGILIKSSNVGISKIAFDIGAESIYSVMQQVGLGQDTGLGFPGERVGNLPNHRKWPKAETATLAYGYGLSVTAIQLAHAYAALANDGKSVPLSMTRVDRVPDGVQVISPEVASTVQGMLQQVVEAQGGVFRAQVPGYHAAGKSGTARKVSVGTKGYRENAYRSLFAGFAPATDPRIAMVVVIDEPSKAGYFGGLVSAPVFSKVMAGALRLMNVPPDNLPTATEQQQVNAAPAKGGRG
# Source text: Example I: Experimental Method for Penicillin-Binding Protein Binding Assays with Bocillin-FL Via Fluorescence Polarization
# To determine the ability of boronic acid-based test PBP inhibitors to bind Penicillin Binding Proteins (PBPs), Bocillin-FL (fluorescently-labeled penicillin V; ThermoFisher Scientific) was used in a fluorescence polarization (FP) competition binding assay to assess inhibitor binding to PBP2, PBP3 or PBP4 from Escherichia coli (K12), PBP3 from Pseudomonas aeruginosa (PA01), PBP1a, PBP2 and PBP3 from Acinetobacter baumannii (ATCC 19606), and PBP2 from Neiserria gonorrheae (FA19). PBPs were cloned and purified as described previously (E. coli PBPs, King, D. T, et al., ACS Infectious Diseases 2015, 1, 175-184; P. aeruginosa PBP3, Han et. al., PNAS 2010, 107 (51), 22002-22007; A. baumannii PBPs, Penwell et. al., Antimicrob. Agents Chemother. 2015, 59 (3), 1680-1689; N. gonorrhoeae PBP2, Singh et. al., J Biol. Chem. 2019, 294 (38), 14020-14032). To establish assay conditions for competition binding, enzyme titration/saturation binding experiments were initially performed. Bocillin-FL was prepared at 0.2 μM in a buffer comprised of 50 mM Hepes (pH 8.0), 300 mM NaCl and 5% (v/v) glycerol for reactions with E. coli, P. aeruginosa and N. gonorrhoeae PBPs, and 25 mM Tris (pH 8.0), 200 mM NaCl and 10% (v/v) glycerol and 0.005% (v/v) Tween 20 for reactions with A. baumannii PBPs. Saturation binding was performed by mixing 40 μl of PBP solutions ranging in concentrations from 0-24 μM with 40 μl of the 0.2 μM Bocillin-FL solution, in individual wells of a black 384-well microplate. FP was measured immediately upon mixing (Excitation, 490 nm; Emission, 520 nm; g-factor, 0.96), using a Cytation3 (BioTek) microplate reader and measured continuously for up to 120 minutes. […] The competition binding assay (80 μl final volume) was validated using beta-lactams and PBPs at final concentrations of: 1.5 μM, E. coli PBP3; 0.75 μM, P. aeruginosa PBP3; 1 μM A. baumannii PBP1a; 2.5 μM A. baumannii PBP2; 0.2 μM A. baumannii PBP3; and […] N. gonorrhoeae PBP2. Bocillin-FL was at 0.1 μM (0.05 μM with A. baumannii PBP1a) and beta-lactam concentrations ranged from 0-1000 μM. […] Bocillin-FL was added and the FP immediately measured for up to 60 minutes (90 minutes for E. coli PBP2). […] The beta-lactam potency was reported as the concentration of beta-lactam required to reduce the amount of PBP bound-Bocillin-FL by 50% (EC50). […] Binding assays for boronic acid PBP inhibitors were performed in an identical fashion for the respective PBPs
# [5] = Escherichia coli, ATCC25922; MHB; E. coli ATCC 25922; read-out: Minimum Inhibitory Concentration, E. coli 25922
# [6] = wild-type parent strain E. coli AG100
smiles,measurement,setting,value
"CCN1CCN(C(=O)N[C@H](C(=O)N[C@H]2Cc3cccc(C(=O)O)c3OB2O)c2ccc(C(=O)O)c(Cl)c2F)C(=O)C1=O (single isomer, unassigned) [Example 221]",MIC,[1],8 to 16 µg/mL
same,MIC,E. coli 901C; E. coli 901C (hyper-permeable),> 128 µg/mL
same,MIC,E. coli AG100A,> 128 µg/mL
same,MIC,P. aeruginosa ATCC 27853,> 128 µg/mL
same,MIC,"E. coli ATCC 25922; Escherichia coli, ATCC25922; E. coli ATCC 25922; MHB; read-out: Minimum Inhibitory Concentration, E. coli 25922",32 to 64 µg/mL
same,MIC,P. aeruginosa ATCC 35151,2 to 4 µg/mL
same,MIC,[2],32 to 64 µg/mL
same,MIC,[3],> 128 µg/mL
same,MIC,E. coli AG100; E. coli AG100 (wild-type parent),> 128 µg/mL
same,MIC,[4],0.5 to 1 µg/mL
same,MIC,E. coli D22; E. coli D22 (hyper-permeable),> 128 µg/mL
same,MIC,A. baumannii ATCC 19606,> 128 µg/mL
same,P. aeruginosa PBP3 Potency,P. aeruginosa PBP3,C (C represents a potency between 10 and 30 μM)
"CCN1CCN(C(=O)N[C@@H](C(=O)N[C@H]2Cc3cccc(C(=O)O)c3OB2O)c2ccc(C(=O)O)c(Cl)c2F)C(=O)C1=O (single isomer, unassigned) [Example 222]",MIC,[1],2 to 4 µg/mL
same,MIC,E. coli 901C; hyper-permeable E. coli 901C,> 128 µg/mL
same,MIC,E. coli AG100A,> 128 µg/mL
same,MIC,P. aeruginosa ATCC 27853,> 128 µg/mL
same,MIC,E. coli ATCC 25922; [5],32 to 64 µg/mL
same,MIC,P. aeruginosa ATCC 35151,0.5 to 1 µg/mL
same,MIC,[2],32 to 64 µg/mL
same,MIC,[3],> 128 µg/mL
same,MIC,E. coli AG100; [6],> 128 µg/mL
same,MIC,[4],< 0.25 µg/mL
same,MIC,E. coli D22; hyper-permeable E. coli D22,> 128 µg/mL
same,MIC,A. baumannii ATCC 19606,> 128 µg/mL
same,P. aeruginosa PBP3 Potency,P. aeruginosa PBP3,D (D represents a potency <10 μM)
"NCCN1CCN(C(=O)N[C@@H](C(=O)N[C@H]2Cc3cccc(C(=O)O)c3OB2O)c2c(F)cccc2F)C(=O)C1=O (single isomer, unassigned) [Example 223]",MIC,[1],8 to 16 µg/mL
same,MIC,E. coli 901C; hyper-permeable E. coli 901C,> 128 µg/mL
same,MIC,E. coli AG100A,> 128 µg/mL
same,MIC,P. aeruginosa ATCC 27853,> 128 µg/mL
same,MIC,E. coli ATCC 25922; [5],> 128 µg/mL
same,MIC,P. aeruginosa ATCC 35151,2 to 4 µg/mL
same,MIC,[2],32 to 64 µg/mL
same,MIC,[3],> 128 µg/mL
same,MIC,E. coli AG100; [6],> 128 µg/mL
same,MIC,[4],2 to 4 µg/mL
same,MIC,E. coli D22; hyper-permeable E. coli D22,> 128 µg/mL
same,MIC,A. baumannii ATCC 19606,> 128 µg/mL
same,P. aeruginosa PBP3 Potency,P. aeruginosa PBP3,D (D represents a potency <10 μM)
